What was measured:
[1] = target: T1, Tyrosine-protein kinase receptor UFO (Homo sapiens, UniProt P30530); test: Inhibition of recombinant human His-tagged AXL expressed in insect cells after 60 mins by Z'-LYTE assay
T1 sequence (P30530 whole entry): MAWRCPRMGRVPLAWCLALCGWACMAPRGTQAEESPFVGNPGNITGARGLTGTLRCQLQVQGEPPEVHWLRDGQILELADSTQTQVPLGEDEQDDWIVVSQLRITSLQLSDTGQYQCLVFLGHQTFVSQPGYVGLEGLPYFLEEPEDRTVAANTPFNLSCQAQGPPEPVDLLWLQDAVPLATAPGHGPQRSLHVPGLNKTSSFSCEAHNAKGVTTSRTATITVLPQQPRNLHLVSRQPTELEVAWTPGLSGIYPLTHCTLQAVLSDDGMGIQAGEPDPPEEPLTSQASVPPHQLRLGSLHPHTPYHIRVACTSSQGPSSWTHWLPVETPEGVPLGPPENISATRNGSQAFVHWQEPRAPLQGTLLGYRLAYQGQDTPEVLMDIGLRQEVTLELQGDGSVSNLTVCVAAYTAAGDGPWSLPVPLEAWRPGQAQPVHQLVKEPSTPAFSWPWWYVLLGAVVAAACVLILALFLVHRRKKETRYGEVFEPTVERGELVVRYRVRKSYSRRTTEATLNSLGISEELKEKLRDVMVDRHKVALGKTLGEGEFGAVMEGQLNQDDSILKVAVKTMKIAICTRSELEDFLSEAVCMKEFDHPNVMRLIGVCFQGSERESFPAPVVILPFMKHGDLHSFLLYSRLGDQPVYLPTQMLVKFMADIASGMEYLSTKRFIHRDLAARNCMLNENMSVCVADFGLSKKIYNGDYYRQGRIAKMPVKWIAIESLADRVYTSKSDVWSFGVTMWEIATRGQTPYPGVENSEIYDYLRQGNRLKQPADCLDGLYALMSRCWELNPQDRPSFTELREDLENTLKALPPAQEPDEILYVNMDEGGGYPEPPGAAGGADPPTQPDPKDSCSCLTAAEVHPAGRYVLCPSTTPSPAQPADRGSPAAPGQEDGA

[2] = target: Tyrosine-protein kinase receptor UFO (Homo sapiens) (UniProt P30530); conditions: 1 uM
Description: Inhibition of recombinant human His-tagged AXL expressed in insect cells at 1 uM after 60 mins by Z'-LYTE assay relative to control

| IC50 [1] | inhibition [2] | SMILES |
| --- | --- | --- |
| > 1000 nM | – | O=C(O)c1cc(-c2c[nH]c3ncc(-c4ccccc4)cc23)ccc1F |
| 182 nM | – | O=C(O)c1ccc(-c2c[nH]c3ncc(-c4ccccc4)cc23)cc1 |
| 524 nM | 75% | c1ccc(-c2cnc3[nH]cc(-c4ccc(-c5nnn[nH]5)cc4)c3c2)cc1 |
